Data on 1 substance can be found in patent US12565665B2, “Compositions and methods for controlled mRNA translation and stability” (TRUSTEES OF BOSTON UNIVERSITY, priority 2022, dated 2026).

Assay type in all cases: cell-based, human
In test [1] the test system is Non-Stop-Decay reporter construct. Briefly: Non-stop decay OFF-switch reporter (dTomato-BiCMV-EGFPd2). As to conditions: biCMV reporter with 2 UAG stop codons; 48-hours post-transfection. An excerpt:
In order to do so, the inventors designed a synthetic transcript (FIG. 2A) where there is an open reading frame (green), 1 or more stop codons in an RNA-hairpin (dark gray), a specific RNA element (light gray), and a 3′UTR with no downstream stop codons prior to the polyadenylate (polyA) tail. The inventors created a reporter plasmid that contained a bidirectional CMV driving the expression dTomato on one transcript and EGFPd2, an editable stop codon, an MS2 operator, and a mutated rabbit-β-globin 3′UTR/poly A signal sequence lacking additional stop codons on the other transcript (FIG. 2B). In the absence of ADAR-DD activity, both dTomato and EGFPd2 should be translated and expressed. However, coexpression of MCP-ADAR2 should lead to editing of the only in-frame stop codon and the initiation of an endogenous process called non-stop decay, whereby the translating ribosome stalls on the polyA-tail and recruits Ski7 followed by exonucleases to destroy the mRNA (FIG. 2C). In this process, proteosomal degradation of the nascent, unreleased polypeptide also occurs. […]
As a final test, the inventors used the MS1(117A)/Mcl-1 variant with the dTomato-BiCMV-EGFPd2 reporter plasmid (FIG. 2B), which should lose EGFPd2 fluorescence with ADAR editing of the final stop codon.

A further test concerns UAG-MS2 editing reporter. Briefly: Stop codon editing reporter (mCherry / mNeonGreen) co-transfected with ADAR variants, flow cytometry (median mNeonGreen to mCherry). The following applies: n=1. An excerpt: For the reporter system, the inventors used the fluorescent protein-epitope tag tandem fusions of mCherry-FLAG and HA-mNeonGreen as the upstream and downstream coding regions. Without DD editing activity, translation is terminated after mCherry-FLAG. Coexpression with MCP-ADAR2-DD was hypothesized to lead to binding of MCP-DD, stop codon UAG editing to UIG, and expression of mNeonGreen (FIG. 1B).
HEK 293 FT cells were co-transfected with plasmids expressing the reporter containing 2 UAG stop codons in the hairpin and a pcDNA3 construct encoding a fusion protein composed of MCP, ADAR2-DD (E488Q), and TagBFP.
Two days later, fluorescence microscopy images were taken of the cell populations. […] The inventors repeated the experiment and analyzed the samples by flow-cytometry.
The inventors transiently co-transfected HEK 293 FT cells with the mCherry-mNeonGreen reporter, MCP-ADAR2-DD variants containing different configurations of ALFA-tag insertions and NbALFA fusions, and uncaging constructs containing miRFP670 fused to ALFA. Without wishing to be bound by theory, it was hypothesized that the intramolecular interaction would inhibit the ADAR2-DD, but that the ALFA tag on the miRFP670 would displace the lower strength ALFA variants (PE and 78), and perhaps at high enough concentrations displace the intramolecular ALFA, and lead to increased editing.
The inventors then made an ADAR-DD variant with an inserted TEV protease cut site (amino acids ENLYFQG, SEQ ID NO: 286) between the C-terminus of ADAR2-DD and the N-terminus of SpyCatcher (FIG. 5C). The inventors co-transfected HEK 293 FT cells with the reporter construct, the ADAR-DD TEVcs variant, and the TEV protease and 48 hours later analyzed the transfected cells via flow cytometry (FIG. 5D-5E).
Mutated versions were then cloned and co-transfected with an editing reporter in the absence and presence of A-1331852, and absolute background and fold change upon drug addition were determined by flow cytometry (see e.g., FIG. 22d and table 11).
In general terms: In flow cytometry, cells or beads pass a laser one at a time.

A further test relates to editable AUG reporters. Description: Destruction of an AUG start codon to IUG, EGFPd2/dTomato reporter, flow cytometry. As to conditions: 48 hours post-transfection; n=3. An excerpt:
To test this, an ADAR substrate was designed similar to the substrates tested above, but with an AUG codon in a dsRNA hairpin with a mismatch to promote the deamination of the correct adenine (see e.g., FIG. 28b). This scheme was similarly tested with both the high affinity MS2-C and lower affinity MS2-A variants by cloning these substrates into a pcDNA3 vector with a bidirectional CMV driving the expression of dTomato and EGFPd2 (see e.g., FIG. 28c).
HEK cells were co-transfected with the two different reporter constructs (MS2-C and MS2-A) and cither filler DNA, MCP-dADAR, or MCP-ADAR. 48 hours post-transfection, cells were lifted and analyzed by flow cytometry. Transfected cells were gated by dTomato, and the median EGFPd2-to-dTomato ratio for the population was calculated per replicate (n=3) by FLOWJO. 2-Way ANOVA was performed to determine significance.

For a further test, the system named is T2A (G18R) construct. Description: Sense codon editing (AGG to IGG) of T2A (G18R), UAS-H2B-mCherry reporter cells, flow cytometry. The following applies: 30 ng ADAR construct, n=3. The source says: To test inducible ADAR recoding of a protein's amino acid composition, a construct was designed that contained: a CD8 signal peptide, an HA epitope tag, the self-labeling Halo Tag, a mutant variant of the thosea asigna virus 2A self-cleaving peptide that is defective for ribosome skipping (Gly 18Arg mutation), the DNA binding domain of Gal4, and a 4× repeat of the transcriptional activation domain from herpes virus (VP64) (see e.g., FIG. 37a). The penultimate glycine in 2A peptides is invariant (see e.g., FIG. 37b) and any mutation leads to defective ribosome skipping. The codon for the G18R residue (AGG) is in a dsRNA hairpin with the high affinity MS2-C motif, which acts as a substrate for targeted MCP-ADAR. In the absence of ADAR editing, the defective T2A sequence will lead to the topological sequestering of the Gal4-VP64 transcription factor in the ER lumen due to the fusion to the secreted HaloTag (see e.g., FIG. 37c). Upon ADAR editing of the Arg18 codon to glycine (AGG to IGG), the T2A regains the function of ribosome skipping. This leads to the protein domains downstream of the T2A sequence to be translated as a separate polypeptide in the cytoplasm, whereby the GAL4-VP64 transcription factor translocate to the nucleus and turn on the expression of a fluorescent H2B-mCherry reporter (see e.g., FIG. 37c).
To test this, an in-house clonal HEK293FT cell line that contains an integrated UAS-H2B-mCherry reporter was co-transfected with the editable T2A (also called T2A*) construct (3 ng, 0.3 ng and 0.03 ng) and cither MCP-dADAR or MCP-ADAR (30 ng). A GAL4-VP64 positive control was also transfected into HEK cells. One day post-transfection, cells were lifted and analyzed by flow cytometry. Transfected cells were gated by TagBFP, the median H2B-mCherry fluorescence for the population was calculated and H2B-mCherry positive populations within the transfected cells were determined by the percentage of cells above 0.5% of non-transfected control cells per replicate (n=3) by FLOWJO.

For “MCP-linker-ADAR2(E488Q)-TagBFP [MCP-ADAR]”, the “EGFPd2 expression relative to catalytically inactive DD, fluorescence microscopy” value in test [1] was “greatly decreased EGFPd2 expression levels”. Moreover, the “Fold Change” value with UAG-MS2 editing reporter (1 μM vs 0 μM A-1331852, flow cytometry) was 1.03. Besides, the “Flow Cytometry Values, 0 μM (median of the ratio of mNeonGreen to mCherry)” value with UAG-MS2 editing reporter (HEK cells co-transfected with ADAR reporter and ADAR variant, 0 μM A-1331852, two days after transfection, gated by BFP) turned out to be 0.9853. Also, in the test with UAG-MS2 editing reporter (HEK cells co-transfected with ADAR reporter and ADAR variant, 1 μM A-1331852, two days after transfection, gated by BFP), the “Flow Cytometry Values, 1 μM (median of the ratio of mNeonGreen to mCherry)” value was found to be 1.0147. For the same substance, in the test on editable AUG reporters, the “relative EGFPd2 levels, active vs inactive ADAR, MS2-A based AUG construct” value was “further, significant decrease in relative EGFPd2 levels” and the “translational efficiency, MS2-A based AUG construct” value is listed as “significant decrease in translational efficiency”. For the same substance, the “population expressing any H2B-mCherry compared to dADAR, 0.03 ng T2A*” value in the test on T2A (G18R) construct (0.03 ng T2A* construct) is “significantly higher”. The “population expressing any H2B-mCherry compared to dADAR, 0.3 ng T2A*” value in the test on T2A (G18R) construct (0.3 ng T2A* construct) is listed as “significantly higher”. Moreover, in the test with T2A (G18R) construct (3 ng T2A* construct, one day post-transfection), the “median H2B-mCherry expression compared to inactive MCP-dADAR control” value is “significant increase”.
